Each molecule was assayed against T1, ER (Homo sapiens, UniProt P03372) (assay: ER degradation activity, in-cell western blot analysis in T47D cells). Conditions: 16 hours, Table A does not say which cell line (T47D or MCF7), read-out: Potency (DC50).
T1 construct: host or cells: T47D and MCF7 human breast cancer cells
T1 sequence (P03372 1-595): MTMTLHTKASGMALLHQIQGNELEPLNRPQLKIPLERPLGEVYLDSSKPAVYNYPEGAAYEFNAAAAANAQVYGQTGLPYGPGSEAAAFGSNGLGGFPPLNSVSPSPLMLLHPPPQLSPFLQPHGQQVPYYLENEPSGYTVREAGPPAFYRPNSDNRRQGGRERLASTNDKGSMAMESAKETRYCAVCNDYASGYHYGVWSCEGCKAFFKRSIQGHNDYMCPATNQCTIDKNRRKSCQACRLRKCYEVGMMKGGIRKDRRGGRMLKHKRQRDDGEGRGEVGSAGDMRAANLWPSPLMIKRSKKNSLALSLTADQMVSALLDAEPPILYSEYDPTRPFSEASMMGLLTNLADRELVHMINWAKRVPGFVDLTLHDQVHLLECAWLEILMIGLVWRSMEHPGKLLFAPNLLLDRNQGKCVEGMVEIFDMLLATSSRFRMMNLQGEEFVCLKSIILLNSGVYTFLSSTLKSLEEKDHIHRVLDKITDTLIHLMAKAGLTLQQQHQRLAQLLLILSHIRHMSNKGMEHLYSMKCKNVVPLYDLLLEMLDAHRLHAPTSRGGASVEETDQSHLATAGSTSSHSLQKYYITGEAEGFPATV
Assay type: cell-based
Summary of the method: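 Human T47D cells (DMEM, 10% FBS) are dosed for 16 h with 0.5% DMSO final and probed with 680- and 800-dye secondary antibodies. Relative ER is calculated against vehicle and untreated wells.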

SMILES | DC50 [nM]
O=C1CCC(N2Cc3cc4c(cc3C2=O)CN(C(=O)C2CCN(CC3CN(c5ccc([C@@H]6c7ccc(O)cc7CC[C@@H]6c6ccccc6)cc5)C3)CC2)C4)C(=O)N1 (stereo partly drawn) [E 296, 3-(6-(1-((1-(4-((1R,2S)-6-hydroxy-2-phenyl-1,2,3,4-tetrahydronaphthalen-1-yl)phenyl)azetidin-3-yl)methyl)piperidine-4-carbonyl)-1-oxo-3,5,6,7-tetrahydropyrrolo[3,4-f]isoindol-2(1H)-yl)piperidine-2,6-dione] | > 100
C[C@@H]1Cc2c([nH]c3ccccc23)[C@@H](c2c(F)cc(-c3ccc(CN4CCC(N5Cc6cc7c(cc6C5)C(=O)N(C5CCC(=O)NC5=O)C7=O)CC4)nc3)cc2F)N1CC(F)F (stereo partly drawn) [E326, 6-(1-((5-(4-((1R,3R)-2-(2,2-difluoroethyl)-3-methyl-2,3,4,9-tetrahydro-1H-pyrido[3,4-b]indol-1-yl)-3,5-difluorophenyl)pyridin-2-yl)methyl)piperidin-4-yl)-2-(2,6-dioxopiperidin-3-yl)-6,7-dihydropyrrolo[3,4-f]isoindole-1,3(2H,5H)-dione] | > 100
O=C1CCC(N2C(=O)c3cc4c(cc3C2=O)CN(CC(=O)N2CCC3(CC2)CCN(c2ccc([C@@H]5c6ccc(O)cc6CC[C@@H]5c5ccccc5)nc2)CC3)C4)C(=O)N1 (mixture of isomers) [E 305, Rac-2-(2,6-dioxopiperidin-3-yl)-6-(2-(9-(6-((1S,2S)-6-hydroxy-2-phenyl-1,2,3,4-tetrahydronaphthalen-1-yl)pyridin-3-yl)-3,9-diazaspiro[5.5]undecan-3-yl)-2-oxoethyl)-6,7-dihydropyrrolo[3,4-f]isoindole-1,3(2H,5H)-dione] | > 100
C[C@@H]1Cc2c([nH]c3ccccc23)[C@@H](c2c(F)cc(N3CCC4(CC3)CN(C(=O)CN3Cc5cc6c(cc5C3)C(=O)N(C3CCC(=O)NC3=O)C6=O)C4)cc2F)N1CC(F)F (stereo partly drawn) [E 111, 6-(2-(7-(4-((1R,3R)-2-(2,2-difluoroethyl)-3-methyl-2,3,4,9-tetrahydro-1H-pyrido[3,4-b]indol-1-yl)-3,5-difluorophenyl)-2,7-diazaspiro[3.5]nonan-2-yl)-2-oxoethyl)-2-(2,6-dioxopiperidin-3-yl)-6,7-dihydropyrrolo[3,4-f]isoindole-1,3(2H,5H)-dione] | < 10
C[C@@H]1Cc2c([nH]c3ccccc23)[C@@H](c2cnc(C3=CCC(C(=O)N4CCC(N5Cc6cc7c(cc6C5)C(=O)N(C5CCC(=O)NC5=O)C7=O)CC4)CC3)nc2)N1CC(F)F (stereo partly drawn) [E 315, 6-(1-(4-(5-((1R,3R)-2-(2,2-difluoroethyl)-3-methyl-2,3,4,9-tetrahydro-1H-pyrido[3,4-b]indol-1-yl)pyrimidin-2-yl)cyclohex-3-ene-1-carbonyl)piperidin-4-yl)-2-(2,6-dioxopiperidin-3-yl)-6,7-dihydropyrrolo[3,4-f]isoindole-1,3(2H,5H)-dione] | > 100
C[C@@H]1Cc2c([nH]c3ccccc23)[C@@H](c2c(F)cc(N3CCC4(CC3)CN(CC3Cc5cc6c(cc5C3)C(=O)N(C3CCC(=O)NC3=O)C6=O)C4)cc2F)N1CC(F)F (stereo partly drawn) [E 232, 6-((7-(4-((1R,3R)-2-(2,2-difluoroethyl)-3-methyl-2,3,4,9-tetrahydro-1H-pyrido[3,4-b]indol-1-yl)-3,5-difluorophenyl)-2,7-diazaspiro[3.5]nonan-2-yl)methyl)-2-(2,6-dioxopiperidin-3-yl)-6,7-dihydrocyclopenta[f]isoindole-1,3(2H,5H)-dione] | > 100
O=C1CCC(N2C(=O)c3cc4c(cc3C2=O)CN(C2CCC(CNC3CN(c5ccc([C@@H]6c7ccc(O)cc7CC[C@@H]6c6ccccc6)cc5)C3)CC2)C4)C(=O)N1 (stereo partly drawn) [E 338, 2-(2,6-dioxopiperidin-3-yl)-6-(4-(((1-(4-((1R,2S)-6-hydroxy-2-phenyl-1,2,3,4-tetrahydronaphthalen-1-yl)phenyl)azetidin-3-yl)amino)methyl)cyclohexyl)-6,7-dihydropyrrolo[3,4-f]isoindole-1,3(2H,5H)-dione] | > 100
C[C@@H]1Cc2c([nH]c3ccccc23)[C@@H](c2c(F)cc(N3CC4(CCCN(C(=O)CN5Cc6cc7c(cc6C5)C(=O)N(C5CCC(=O)NC5=O)C7)C4)C3)cc2F)N1CC(F)F (some centres unmarked) [E 69] | > 100
C[C@@H]1Cc2c([nH]c3ccccc23)[C@@H](c2c(F)cc(N3CCC(N4CCC(CN5Cc6cc7c(cc6C5)C(=O)N(C5CCC(=O)NC5=O)C7=O)CC4)C3)cc2F)N1CC(F)F (stereo partly drawn) [E 124, 6-((1-(1-(4-((1R,3R)-2-(2,2-difluoroethyl)-3-methyl-2,3,4,9-tetrahydro-1H-pyrido[3,4-b]indol-1-yl)-3,5-difluorophenyl)pyrrolidin-3-yl)piperidin-4-yl)methyl)-2-(2,6-dioxopiperidin-3-yl)-6,7-dihydropyrrolo[3,4-f]isoindole-1,3(2H,5H)-dione] | > 100
O=C1CCC(N2C(=O)c3cc4c(cc3C2=O)CN(CC2CCN(C(=O)C3CN(c5ccc([C@@H]6c7ccc(O)cc7CC[C@@H]6c6ccccc6)cc5)C3)CC2)C4)C(=O)N1 (mixture of isomers) [E 156, Rac-2-(2,6-dioxopiperidin-3-yl)-6-((1-(1-(4-((1R,2S)-6-hydroxy-2-phenyl-1,2,3,4-tetrahydronaphthalen-1-yl)phenyl)azetidine-3-carbonyl)piperidin-4-yl)methyl)-6,7-dihydropyrrolo[3,4-f]isoindole-1,3(2H,5H)-dione] | 10 to 100
C[C@@H]1Cc2c([nH]c3ccccc23)[C@@H](c2ccc(N3CCC(C(=O)N4CCC(N5Cc6cc7c(cc6C5)C(=O)N(C5CCC(=O)NC5=O)C7=O)CC4)CC3)cc2)N1CC(F)F (stereo partly drawn) [E 263, 6-(1-(1-(4-((1R,3R)-2-(2,2-difluoroethyl)-3-methyl-2,3,4,9-tetrahydro-1H-pyrido[3,4-b]indol-1-yl)phenyl)piperidine-4-carbonyl)piperidin-4-yl)-2-(2,6-dioxopiperidin-3-yl)-6,7-dihydropyrrolo[3,4-f]isoindole-1,3(2H,5H)-dione] | 10 to 100

Same assay, conditions: compounds 16 hours, Table A does not say whether T47D or MCF7, read-out: Potency (DC50)

SMILES | DC50 [nM]
C[C@@H]1Cc2c([nH]c3ccccc23)[C@@H](c2c(F)cc(C3CCC(C(=O)N4CCC(N5Cc6cc7c(cc6C5)C(=O)N(C5CCC(=O)NC5=O)C7=O)CC4)CC3)cc2F)N1CC(F)(F)CO (stereo partly drawn) [E 400, 6-(1-(4-(4-((1R,3R)-2-(2,2-difluoro-3-hydroxypropyl)-3-methyl-2,3,4,9-tetrahydro-1H-pyrido[3,4-b]indol-1-yl)-3,5-difluorophenyl)cyclohexane-1-carbonyl)piperidin-4-yl)-2-(2,6-dioxopiperidin-3-yl)-6,7-dihydropyrrolo[3,4-f]isoindole-1,3(2H,5H)-dione] | > 100
O=C1CCC(N2C(=O)c3cc4c(cc3C2=O)CN(CC(=O)N2CCC3(CC2)CCN(c2ccc([C@H]5c6ccc7[nH]ncc7c6CC[C@H]5c5ccccc5)cc2)CC3)C4)C(=O)N1 (stereo partly drawn) [E 422, 2-(2,6-dioxopiperidin-3-yl)-6-(2-oxo-2-(9-(4-((6S,7R)-7-phenyl-6,7,8,9-tetrahydro-3H-benzo[e]indazol-6-yl)phenyl)-3,9-diazaspiro[5.5]undecan-3-yl)ethyl)-6,7-dihydropyrrolo[3,4-f]isoindole-1,3(2H,5H)-dione] | > 100
C[C@@H]1Cc2cc(O)ccc2[C@@H](c2ccc(C(=O)N3CC4(CCN(C(=O)CN5Cc6cc7c(cc6C5)C(=O)N(C5CCC(=O)NC5=O)C7=O)CC4)C3)cc2)N1CC(F)F (stereo partly drawn) [E 459, 6-(2-(2-(4-((1R,3R)-2-(2,2-difluoroethyl)-6-hydroxy-3-methyl-1,2,3,4-tetrahydroisoquinolin-1-yl)benzoyl)-2,7-diazaspiro[3.5]nonan-7-yl)-2-oxoethyl)-2-(2,6-dioxopiperidin-3-yl)-6,7-dihydropyrrolo[3,4-f]isoindole-1,3(2H,5H)-dione] | < 10
C[C@@H]1Cc2c([nH]c3ccccc23)[C@@H](c2c(F)cc(C3=CCC4(CC3)CCN(C(=O)CN3Cc5cc6c(cc5C3)C(=O)N(C3CCC(=O)NC3=O)C6=O)CC4)cc2F)N1CC(F)F (stereo partly drawn) [E 476, 6-(2-(9-(4-((1R,3R)-2-(2,2-difluoroethyl)-3-methyl-2,3,4,9-tetrahydro-1H-pyrido[3,4-b]indol-1-yl)-3,5-difluorophenyl)-3-azaspiro[5.5]undec-8-en-3-yl)-2-oxoethyl)-2-(2,6-dioxopiperidin-3-yl)-6,7-dihydropyrrolo[3,4-f]isoindole-1,3(2H,5H)-dione] | 10 to 100
O=C1CCC(N2Cc3cc4c(cc3C2=O)CN(CC2CN(CC3CCN(c5ccc([C@@H]6c7ccc(O)cc7CC[C@@H]6c6ccccc6)cc5)CC3)C2)C4=O)C(=O)N1 (stereo partly drawn) [E 504, 2-(2,6-dioxopiperidin-3-yl)-6-((1-((1-(4-((1R,2S)-6-hydroxy-2-phenyl-1,2,3,4-tetrahydronaphthalen-1-yl)phenyl)piperidin-4-yl)methyl)azetidin-3-yl)methyl)-2,3,6,7-tetrahydropyrrolo[3,4-f]isoindole-1,5-dione] | > 100
O=C1CCC(N2C(=O)c3cc4c(cc3C2=O)CC2(C4)CN(C(=O)CN3CC(Oc4ccc([C@@H]5c6ccc(O)cc6CC[C@@H]5c5ccccc5)cc4)C3)C2)C(=O)N1 (stereo partly drawn) [E 502, 2′-(2,6-dioxopiperidin-3-yl)-1-(2-(3-(4-((1R,2S)-6-hydroxy-2-phenyl-1,2,3,4-tetrahydronaphthalen-1-yl)phenoxy)azetidin-1-yl)acetyl)-5′,7′-dihydro-1′H-spiro[azetidine-3,6′-cyclopenta[f]isoindole]-1′,3′(2′H)-dione] | > 100
